Data as given in US20180169145A1, “COMPOSITIONS AND METHODS FOR USING LAMELLAR BODIES FOR THERAPEUTIC PURPOSES” (priority 2015, published 2018).
Like-named read-outs stand apart in the source and are kept apart here.

What was measured:
Pseudomonas aeruginosa [1] = assay: MBEC assay: sessile (biofilm) MIC of antibiotics in absence and presence of LMS-611; format: cell-based; details: for sessile MIC + LMS: in presence of LMS-611 (10 mg/mL); for reduction of sessile MIC of the antibiotic by LMS-611: PA strains, in combination with LMS-611; for MIC: Pseudomonas aeruginosa; for MIC / sessile MIC: antibiotic alone; for effect of LMS-611 with antibiotic in reducing biofilm MICs, compared with antibiotic alone: strain PA01, FIG. 14-17
Experimental: Pseudomonas aeruginosa strains PA01, PAl4, two clinical Cystic Fibrosis (CF) strains […], YH1 and Burkholderia cenocepacia strains […]7 and YHBCC8 were grown on a Nunc Immunosorp PEG plate model for 48 h on a rocking platform. […] Scanning electron microscopy was used to assess the treated biofilms.

Pseudomonas aeruginosa [2] = assay: Artificial sputum medium (ASM) biofilm assay; format: cell-based; details: for bacterial kill of antibiotic with LMS-611: LMS-611 at 40 μg/ml
Text: ASM is artificial sputum medium.
Images of PA biofilm in ASM. Quantification of bacterial count from the ASM biofilm (CFU/mL).
In vitro, Artificial Sputum Models (ASM), considered to represent biofilm typical of that seen in CF, were used to study Pseudomonas aeruginosa infection.
Pyocyanin, a blue-green phenazine pigment produced by P. aeruginosa and controlled by the quorum sensing system (a system of inter-bacterial signalling which correlates to population density) and thus its presence and concentration in a bacterial culture can be used to give an indication of the strength of quorum sensing activity.
Measurement of metabolic activity of Pseudomonas aeruginosa in the Artificial Sputum Model (ASM) using a Resazurin assay, in which the fluorescence detected is directly proportional to the metabolic activity of the bacteria (FIG. 3).

Burkholderia cenocepacia = assay: MBEC assay: sessile (biofilm) MIC of antibiotics in absence and presence of LMS-611; format: cell-based; details: for MIC: Burkholderia cenocepacia
Experimental: Pseudomonas aeruginosa strains PA01, PAl4, two clinical Cystic Fibrosis (CF) strains H183, YH1 and Burkholderia cenocepacia strains K56-2, YHBCC5, YHBCC6, YHBCC7 and YHBCC8 were grown on a Nunc Immunosorp PEG plate model for 48 h on a rocking platform. […] Scanning electron microscopy was used to assess the treated biofilms.

PA strains = assay: Nebulisation of LMS-611 combined with antibiotic, multistage liquid impactor (MSLI); parameters: species or system Pseudomonas aeruginosa; details: colistin: PA2783 strain, stages representing site of cystic fibrosis lung disease; tobramycin: PA strain 27853
Text: FIG. 18 illustrates the effect of nebulisation of LMS-611 when combined with Colistin with PA strain 217M using nebulisers with two different modes of operation (Pari-boy (jet-type) and Pari Flow (oscillating mesh)) wherein a multistage liquid impactor (MSLI) was used to measure the aerodynamic particle size distribution and deposition from nebulised LMS-611 compositions wherein the MSLI from Copley measures particle size in accordance with the European Pharmacopeia guidelines (Chapter […]) and the impactor has five stages simulating the various parts of the human respiratory system. Particles with the same inertia will impact upon a particular stage, whilst smaller particles will pass onto the next impaction stage such that by analysing the amount of LMS-611 deposited on the various stages the fine particle dose and fraction can be calculated wherein the fine particle dose (respirable fraction) is the proportion of the dose from an inhalation device (nebuliser) that is made available to the airways, and this correlates with the dose of LMS-611 that reaches the conducting airways during inhalation;

| Compound | sessile MIC + LMS (Pseudomonas aeruginosa [1]; PA strain H183) [µg/mL] | sessile MIC + LMS (Pseudomonas aeruginosa [1]; PA strain PA01) [µg/mL] | sessile MIC + LMS (Pseudomonas aeruginosa [1]; PA strain PA14) [µg/mL] | sessile MIC + LMS (Pseudomonas aeruginosa [1]; PA strain YH1) [µg/mL] | reduction of sessile MIC of the antibiotic by LMS-611 (Pseudomonas aeruginosa [1]) | MIC (Pseudomonas aeruginosa [1]; PA14, PA strain PA14) [µg/mL] | MIC (Pseudomonas aeruginosa [1]; PA strain H183) [µg/mL] | MIC (Pseudomonas aeruginosa [1]; PA strain PA01) [µg/mL] | MIC (Pseudomonas aeruginosa [1]; PA strain YH1) [µg/mL] | effect of LMS-611 with antibiotic in reducing biofilm MICs, compared with antibiotic alone (Pseudomonas aeruginosa [1]) | also measured |
| --- | --- | --- | --- | --- | --- | --- | --- | --- | --- | --- | --- |
| C[C@H]1[C@H](NC(=O)/C(=N\OC(C)(C)C(=O)O)c2csc(N)n2)C(=O)N1S(=O)(=O)O [Aztreonam] | 2000 | 2000 | 2000 | 1000 | 2-4 fold | 4000 | 4000 | 4000 | 4000 | – | – |
| O=C(O)c1cn(C2CC2)c2cc(N3CCNCC3)c(F)cc2c1=O [Ciprofloxacin] | – | – | – | – | – | – | – | – | – | – | bacterial kill of antibiotic with LMS-611 (Pseudomonas aeruginosa [2]): total bacterial kill |
| C[C@@H](O)[C@H]1C(=O)N2C(C(=O)O)=C(S[C@@H]3CN[C@H](C(=O)N(C)C)C3)[C@H](C)[C@H]12 [Meropenem] | 1000 | 2000 | 2000 | 1000 | 1-2 fold | 2000 | 2000 | 2000 | 2000 | – | – |
| CCN1CCN(C(=O)N[C@@H](C(=O)N[C@@H]2C(=O)N3[C@@H]2SC(C)(C)[C@@H]3C(=O)O)c2ccccc2)C(=O)C1=O [Piperacillin] | 250 | 250 | 1000 | 1000 | 4-16 fold | 8000 | 4000 | 2000 | 8000 | more effective | MIC (Burkholderia cenocepacia; BCC strain K56-2, antibiotic alone, read-out: sessile MIC): 64000 µg/mL; MIC (Burkholderia cenocepacia; BCC strain K56-2, in presence of LMS-611 (10 mg/mL), read-out: sessile MIC + LMS): 16000 µg/mL; MIC (Burkholderia cenocepacia; BCC strain YHBCC5, antibiotic alone, read-out: sessile MIC): 32000 µg/mL; MIC (Burkholderia cenocepacia; BCC strain YHBCC5, in presence of LMS-611 (10 mg/mL), read-out: sessile MIC + LMS): 4000 µg/mL; MIC (Burkholderia cenocepacia; BCC strain YHBCC6, antibiotic alone, read-out: sessile MIC): 32000 µg/mL; MIC (Burkholderia cenocepacia; BCC strain YHBCC6, in presence of LMS-611 (10 mg/mL), read-out: sessile MIC + LMS): 32000 µg/mL; MIC (Burkholderia cenocepacia; BCC strain YHBCC7, antibiotic alone, read-out: sessile MIC): 32000 µg/mL; MIC (Burkholderia cenocepacia; BCC strain YHBCC7, in presence of LMS-611 (10 mg/mL), read-out: sessile MIC + LMS): 4000 µg/mL |
| NC[C@H]1O[C@H](O[C@H]2[C@H](O)[C@@H](O[C@H]3O[C@H](CO)[C@@H](O)[C@H](N)[C@H]3O)[C@H](N)C[C@@H]2N)[C@H](N)C[C@@H]1O [Tobramycin] | <4000 | <4000 | <4000 | 500 | 1-4 fold | < 4000 | < 4000 | < 4000 | 2000 | – | bacterial kill of antibiotic with LMS-611 (Pseudomonas aeruginosa [2]): total bacterial kill; bacterial clearance of LMS-611 plus antibiotic compared to antibiotic treatment alone (Pseudomonas aeruginosa [2]; preformed biofilm, in combination with LMS-611): significantly greater bacterial clearance; bactericidal effect of nebulised antibiotic combined with LMS-611 by MSLI stage (PA strains): greater on the 6.8 μm, 3.1 μm and 1.7 μm stages |
| CC(C)(O/N=C(\C(=O)N[C@@H]1C(=O)N2C(C(=O)[O-])=C(C[n+]3ccccc3)CS[C@H]12)c1csc(N)n1)C(=O)O [ceftazidime] | – | – | – | – | – | – | – | – | – | more effective | – |
| CC[C@H]1OC(=O)[C@H](C)[C@@H](O[C@H]2C[C@@](C)(OC)[C@@H](O)[C@H](C)O2)[C@H](C)[C@@H](O[C@@H]2O[C@H](C)C[C@H](N(C)C)[C@H]2O)[C@](C)(O)C[C@@H](C)C(=O)[C@H](C)[C@@H](O)[C@]1(C)O [erythromycin] | – | – | – | – | – | – | – | – | – | – | reduction of sessile MIC of the antibiotic by LMS-611 (Burkholderia cenocepacia; BCC strains, in combination with LMS-611): No effect |
| Gentamicin | 500 | 500 | 500 | – | 4-8 fold | – | – | – | – | more effective | sessile MIC (Pseudomonas aeruginosa [1]; PA strain H183): 4000 µg/mL; sessile MIC (Pseudomonas aeruginosa [1]; PA strain PA01): 4000 µg/mL; sessile MIC (Pseudomonas aeruginosa [1]; PA strain PA14): 4000 µg/mL; sessile MIC (Pseudomonas aeruginosa [1]; PA strain YH1): 500 µg/mL; sessile MIC (Burkholderia cenocepacia; BCC strain K56-2, antibiotic alone): 256000 µg/mL; sessile MIC + LMS (Burkholderia cenocepacia; BCC strain K56-2, in presence of LMS-611 (10 mg/mL)): 64000 µg/mL; sessile MIC (Burkholderia cenocepacia; BCC strain YHBCC5, antibiotic alone): >256000 µg/mL; sessile MIC + LMS (Burkholderia cenocepacia; BCC strain YHBCC5, in presence of LMS-611 (10 mg/mL)): 256000 µg/mL; sessile MIC (Burkholderia cenocepacia; BCC strain YHBCC6, antibiotic alone): 64000 µg/mL; sessile MIC + LMS (Burkholderia cenocepacia; BCC strain YHBCC6, in presence of LMS-611 (10 mg/mL)): 16000 µg/mL; sessile MIC (Burkholderia cenocepacia; BCC strain YHBCC7, antibiotic alone): 128000 µg/mL; sessile MIC + LMS (Burkholderia cenocepacia; BCC strain YHBCC7, in presence of LMS-611 (10 mg/mL)): 16000 µg/mL |
| colistin | – | – | – | – | – | – | – | – | – | more effective | bactericidal effect of nebulised antibiotic combined with LMS-611 by MSLI stage (PA strains): greatest bactericidal effect |
